Assay results reported in patent US12478617B2, “Lipidated peptide inhibitors of interleukin-23 receptor” (JANSSEN BIOTECH, INC., priority 2021, dated 2025).
Starred links: 1 amine or outer side, 2 acyl side, 3 side chain; linkers in the order of their positions; H or OH if unused. Positions of bridges follow the written chain, without caps; N, C: chain ends. Non-standard residues stand in square brackets, D forms with d. Residues, ends and D or L forms follow the SMILES beside them. Groups on a side chain read outwards from the residue. *: point of attachment. X2 = C[N+](C)(CCNC(=O)COCCOCCNC(=O)COCCOCCNC(=O)CC[C@H](NC(=O)CCCCCCCCCCCCCCCCC(=O)O)C(=O)O)CC(=O)*; εLys(α-Octadecanedioyl) = O=C(O)CCCCCCCCCCCCCCCCC(=O)N[C@@H](CCCCN*)C(=O)O; Decanoyl(10-(4-HOOC-PhO)) = O=C(O)c1ccc(OCCCCCCCCCC(=O)*)cc1; Decanoyl(10-O(3-COOH-Ph)) = O=C(O)c1cccc(OCCCCCCCCCC(=O)*)c1; Trp(7-Me) = Cc1cccc2c(C[C@H](N)C(=O)O)c[nH]c12; C18 diacid = O=C(O)CCCCCCCCCCCCCCCCC(=O)*; γGlu = O=C(O)[C@H](CCC(=O)[*:2])N[*:1]; 2Nal = N[C@@H](Cc1ccc2ccccc2c1)C(=O)O; AEF = NCCOc1ccc(C[C@H](N)C(=O)O)cc1; Palmitoyl = CCCCCCCCCCCCCCCC(=O)*; 3Pal = N[C@@H](Cc1cccnc1)C(=O)O; Pen = CC(C)(S)[C@H](N)C(=O)O; Thp = NC1(C(=O)O)CCOCC1; AEEA = NCCOCCOCC(=O)O; Sar = CNCC(=O)O

What follows are molecules tested against T1, IL-23R (Homo sapiens, UniProt Q5VWK5) (assay: IL23R Reporter Assay).
T1 construct: HEK293 cells containing IL-23R, IL-12RP31 and a firefly luciferase reporter gene driven by a STAT-inducible promoter (Promega); host or cells: HEK293
T1 sequence (Q5VWK5 24-629): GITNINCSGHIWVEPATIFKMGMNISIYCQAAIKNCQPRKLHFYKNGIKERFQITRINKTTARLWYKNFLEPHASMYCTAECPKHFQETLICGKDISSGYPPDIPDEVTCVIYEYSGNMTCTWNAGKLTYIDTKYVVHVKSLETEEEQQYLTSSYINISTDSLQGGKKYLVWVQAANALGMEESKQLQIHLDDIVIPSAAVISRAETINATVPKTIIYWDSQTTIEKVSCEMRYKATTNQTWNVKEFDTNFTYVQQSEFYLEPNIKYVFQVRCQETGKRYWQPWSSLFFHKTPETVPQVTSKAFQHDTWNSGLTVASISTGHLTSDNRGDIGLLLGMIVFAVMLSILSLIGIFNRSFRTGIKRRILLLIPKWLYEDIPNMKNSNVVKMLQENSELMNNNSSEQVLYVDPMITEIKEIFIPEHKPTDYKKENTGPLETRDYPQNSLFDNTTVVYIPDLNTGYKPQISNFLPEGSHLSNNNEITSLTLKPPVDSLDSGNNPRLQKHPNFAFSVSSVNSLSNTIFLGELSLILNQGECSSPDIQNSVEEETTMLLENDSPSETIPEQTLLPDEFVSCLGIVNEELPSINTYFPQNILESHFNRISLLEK
Assay type: cell-based
Description: IL-23 binding to IL-23 receptors results in the activation of the Signal Transducer and Activator of Transcription 3 (STAT3) by phosphorylation and downstream signaling events. Accordingly. the ability of the inhibitors described herein to block IL-23 action can be assessed by monitoring the status of STAT3 activation in response to IL-23. This may be accomplished in reporter cell assays or in intact cells such as peripheral blood mononuclear cells (PBMCs).
Compounds were serially diluted in 100% (v/v) DMSO) and plated using an Echo acoustic dispenser (Labcyte) into 1536-well non-treated black assay plates (Corning #9146). […] After 5 h at 37° C., 5% CO2, 95% relative humidity, cells were placed at 20° C. and treated with BioGlo reagent (Promega) according to the Manufacturer's instructions. Luminescence was measured on a Pherastar FSX (BMG LabTech).
CC(=O)NCCCC[C@@H]1NC(=O)[C@H](Cc2c[nH]c3c(C)cccc23)NC(=O)[C@H]([C@@H](C)O)NC(=O)[C@H](CC(N)=O)NC(=O)[C@@H](NC(C)=O)C(C)(C)SSC(C)(C)[C@@H](C(=O)N[C@@H](Cc2ccc(OCCN)cc2)C(=O)N[C@@H](Cc2ccc3ccccc3c2)C(=O)NC2(C(=O)N[C@@H](CCCCNC(C)=O)C(=O)N[C@@H](CC(N)=O)C(=O)N[C@@H](Cc3cccnc3)C(=O)N(C)CC(=O)NCCOCCOCC(=O)NCCOCCOCC(=O)NCCCC[C@H](NC(=O)CCCCCCCCCCCCCCCCC(=O)O)C(=O)O)CCOCC2)NC1=O [Example 46, MeCO-Pen*-N-T-7MeW-K(Ac)-Pen*-AEF-2Nal-THP-K(Ac)-N-3Pya-Sar-PEG2PEG2eKC18OH-COOH] (Ac-[Pen]NT[Trp(7-Me)]K(Ac)[Pen][AEF][2Nal][Thp]K(Ac)N[3Pal][Sar][AEEA][AEEA]-{εLys(α-Octadecanedioyl)}; disulfide 1-6) gave an IC50 of 0.26 nM. CC(=O)NCCCC[C@@H]1NC(=O)[C@H](Cc2c[nH]c3c(C)cccc23)NC(=O)[C@H]([C@@H](C)O)NC(=O)[C@H](CC(N)=O)NC(=O)[C@@H](NC(C)=O)C(C)(C)SSC(C)(C)[C@@H](C(=O)N[C@@H](Cc2ccc(OCCN)cc2)C(=O)N[C@@H](Cc2ccc3ccccc3c2)C(=O)NC2(C(=O)N[C@@H](CCCCNC(=O)C[N+](C)(C)CCNC(=O)COCCOCCNC(=O)COCCOCCNC(=O)CC[C@H](NC(=O)CCCCCCCCCCCCCCCCC(=O)O)C(=O)O)C(=O)N[C@@H](CC(N)=O)C(=O)N[C@@H](Cc3cccnc3)C(=O)N(C)CC(N)=O)CCOCC2)NC1=O [Example 124, MeCO-Pen*-N-T-7MeW-K(Ac)-Pen*-AEF-2Nal-THP-K(SP6 PEG2PEG2gE C18OH)-N-3Pya-Sar-CONH2] (Ac-[Pen]NT[Trp(7-Me)]K(Ac)[Pen][AEF][2Nal][Thp]K(X2)N[3Pal][Sar]-NH2; disulfide 1-6) gave an IC50 of 0.083 nM. Molecule CC(=O)NCCCC[C@@H]1NC(=O)[C@H](Cc2c[nH]c3c(C)cccc23)NC(=O)[C@H]([C@@H](C)O)NC(=O)[C@H](CC(N)=O)NC(=O)[C@@H](NC(C)=O)C(C)(C)SSC(C)(C)[C@@H](C(=O)N[C@@H](Cc2ccc(OCCN)cc2)C(=O)N[C@@H](Cc2ccc3ccccc3c2)C(=O)NC2(C(=O)N[C@@H](CCCCNC(=O)COCCOCCNC(=O)COCCOCCNC(=O)CC[C@H](NC(=O)CCCCCCCCCOc3ccc(C(=O)O)cc3)C(=O)O)C(=O)N[C@@H](CC(N)=O)C(=O)N[C@@H](Cc3cccnc3)C(=O)N(C)CC(N)=O)CCOCC2)NC1=O [Example 111, MeCO-Pen*-N-T-7MeW-K(Ac)-Pen*-AEF-2Nal-THP-K(PEG2PEG2gEpXOH)-N-3Pya-Sar-CONH2] (Ac-[Pen]NT[Trp(7-Me)]K(Ac)[Pen][AEF][2Nal][Thp]K([AEEA-AEEA-γGlu-Decanoyl(10-(4-HOOC-PhO))])N[3Pal][Sar]-NH2; disulfide 1-6) has an IC50 of 0.048 nM. In the case of CC(=O)NCCCC[C@@H]1NC(=O)[C@H](Cc2c[nH]c3c(C)cccc23)NC(=O)[C@H]([C@@H](C)O)NC(=O)[C@H](CC(N)=O)NC(=O)[C@@H](NC(C)=O)C(C)(C)SSC(C)(C)[C@@H](C(=O)N[C@@H](Cc2ccc(OCCN)cc2)C(=O)N[C@@H](Cc2ccc3ccccc3c2)C(=O)NC2(C(=O)N[C@@H](CCCCNC(=O)COCCOCCNC(=O)CC[C@H](NC(=O)CCCCCCCCCCCCCCCCC(=O)O)C(=O)O)C(=O)N[C@@H](CC(N)=O)C(=O)N[C@@H](Cc3cccnc3)C(=O)N(C)CC(N)=O)CCOCC2)NC1=O [Example 35, MeCO-Pen*-N-T-7MeW-K(Ac)-Pen*-AEF-2Nal-THP-K(PEG2gEC18OH)-N-3Pya-Sar-CONH2] (Ac-[Pen]NT[Trp(7-Me)]K(Ac)[Pen][AEF][2Nal][Thp]K([AEEA-γGlu-C18 diacid])N[3Pal][Sar]-NH2; disulfide 1-6), the IC50 is reported as 0.19 nM. For CC(=O)NCCCC[C@@H]1NC(=O)[C@H](Cc2c[nH]c3c(C)cccc23)NC(=O)[C@H]([C@@H](C)O)NC(=O)[C@H](CC(N)=O)NC(=O)[C@@H](NC(C)=O)C(C)(C)SSC(C)(C)[C@@H](C(=O)N[C@@H](Cc2ccc(OCCN)cc2)C(=O)N[C@@H](Cc2ccc3ccccc3c2)C(=O)NC2(C(=O)N[C@@H](CCCCNC(=O)COCCOCCNC(=O)COCCOCCNC(=O)CC[C@H](NC(=O)CCCCCCCCCOc3cccc(C(=O)O)c3)C(=O)O)C(=O)N[C@@H](CC(N)=O)C(=O)N[C@@H](Cc3cccnc3)C(=O)N(C)CC(N)=O)CCOCC2)NC1=O [Example 97, MeCO-Pen*-N-T-7MeW-K(Ac)-Pen*-AEF-2Nal-THP-K(PEG2PEG2gEmXOH)-N-3Pya-Sar-CONH2] (Ac-[Pen]NT[Trp(7-Me)]K(Ac)[Pen][AEF][2Nal][Thp]K([AEEA-AEEA-γGlu-Decanoyl(10-O(3-COOH-Ph))])N[3Pal][Sar]-NH2; disulfide 1-6), the IC50 was 0.0082 nM. For CCCCCCCCCCCCCCCC(=O)N[C@@H](CCC(=O)NCCCC[C@H](NC(=O)C1(NC(=O)[C@H](Cc2ccc3ccccc3c2)NC(=O)[C@H](Cc2ccc(OCCN)cc2)NC(=O)[C@H]2NC(=O)[C@H](CCCCNC(C)=O)NC(=O)[C@H](Cc3c[nH]c4c(C)cccc34)NC(=O)[C@H]([C@@H](C)O)NC(=O)[C@H](CC(N)=O)NC(=O)[C@@H](NC(C)=O)C(C)(C)SSC2(C)C)CCOCC1)C(=O)N[C@@H](CC(N)=O)C(=O)N[C@@H](Cc1cccnc1)C(=O)N(C)CC(N)=O)C(=O)O [Example 75, MeCO-Pen*-N-T-7MeW-K(Ac)-Pen*-AEF-2Nal-THP-K(gEC16)-N-3Pya-Sar-CONH2] (Ac-[Pen]NT[Trp(7-Me)]K(Ac)[Pen][AEF][2Nal][Thp]K([γGlu-Palmitoyl])N[3Pal][Sar]-NH2; disulfide 1-6), the IC50 was 0.096 nM. CC(=O)NCCCC[C@@H]1NC(=O)[C@H](Cc2c[nH]c3c(C)cccc23)NC(=O)[C@H]([C@@H](C)O)NC(=O)[C@H](CC(N)=O)NC(=O)[C@@H](NC(C)=O)C(C)(C)SSC(C)(C)[C@@H](C(=O)N[C@@H](Cc2ccc(OCCN)cc2)C(=O)N[C@@H](Cc2ccc3ccccc3c2)C(=O)NC2(C(=O)N[C@@H](CCCCNC(=O)COCCOCCNC(=O)COCCOCCNC(=O)CC[C@H](NC(=O)CCCCCCCCCCCCCCCCCCC(=O)O)C(=O)O)C(=O)N[C@@H](CC(N)=O)C(=O)N[C@@H](Cc3cccnc3)C(=O)N(C)CC(N)=O)CCOCC2)NC1=O [Example 36, MeCO-Pen*-N-T-7MeW-K(Ac)-Pen*-AEF-2Nal-THP-K(PEG2PEG2gEC20OH)-N-3Pya-Sar-CONH2] gave an IC50 of 0.14 nM. Molecule CC(=O)NCCCC[C@@H]1NC(=O)[C@H](Cc2c[nH]c3c(C)cccc23)NC(=O)[C@H]([C@@H](C)O)NC(=O)[C@H](CCCCNC(=O)COCCOCCNC(=O)COCCOCCNC(=O)CC[C@H](NC(=O)CCCCCCCCCCCCCCCCC(=O)O)C(=O)O)NC(=O)[C@@H](NC(=O)[C@@H](CCCNC(=N)N)NC(C)=O)C(C)(C)SSC(C)(C)[C@@H](C(=O)N[C@@H](Cc2ccc(OCCN)cc2)C(=O)N[C@@H](Cc2ccc3ccccc3c2)C(=O)NC2(C(=O)N[C@@H](CCCCNC(C)=O)C(=O)N[C@@H](CC(N)=O)C(=O)N[C@@H](Cc3cccnc3)C(=O)N(C)CC(N)=O)CCOCC2)NC1=O [Example 50, MeCO-r-Pen*-K(PEG2PEG2gEC18OH)-T-7MeW-K(Ac)-Pen*-AEF-2Nal-THP-K(Ac)-N-3Pya-Sar-CONH2] (Ac-[dR][Pen]K([AEEA-AEEA-γGlu-C18 diacid])T[Trp(7-Me)]K(Ac)[Pen][AEF][2Nal][Thp]K(Ac)N[3Pal][Sar]-NH2; disulfide 2-7) has an IC50 of 0.1 nM. Molecule CC(=O)NCCCC[C@@H]1NC(=O)[C@H](Cc2c[nH]c3c(C)cccc23)NC(=O)[C@H]([C@@H](C)O)NC(=O)[C@H](CC(N)=O)NC(=O)[C@@H](NC(C)=O)C(C)(C)SSC(C)(C)[C@@H](C(=O)N[C@@H](Cc2ccc(OCCN)cc2)C(=O)N[C@@H](Cc2ccc3ccccc3c2)C(=O)NC2(C(=O)N[C@@H](CCCCNC(=O)COCCOCCNC(=O)COCCOCCNC(=O)CC[C@H](NC(=O)[C@H](CNC(=O)CCCCCCCCCOc3cccc(C(=O)O)c3)NC(=O)CCCCCCCCCOc3cccc(C(=O)O)c3)C(=O)O)C(=O)N[C@@H](CC(N)=O)C(=O)N[C@@H](Cc3cccnc3)C(=O)N(C)CC(N)=O)CCOCC2)NC1=O [Example 134, MeCO-Pen*-N-T-7MeW-K(Ac)-Pen*-AEF-2Nal-THP-K(PEG2PEG2gEDAP(mXOH)2)-N-3Pya-Sar-CONH2] has an IC50 of 0.037 nM.
